Assay results as given in BindingDB's records for doi:10.1021/acs.jmedchem.1c00779 (Hong Kong Polytechnic University, 2021).
pEC50: −log10 of the molar value.

Tests used:
[1] = Inhibition of BCRP (unknown origin) transfected in HEK293/R2 cells assessed as reversal of topotecan resistance after 5 days by MTS/PMS assay
[2] = Inhibition of MRP1 (unknown origin) expressed in human 2008/MRP1 cells assessed as reversal of doxorubicin resistance after 5 days by MTS/PMS assay
[3] = Inhibition of BCRP (unknown origin) expressed in MCF7/MX100 cells assessed as reversal of topotecan resistance after 5 days by MTS/PMS assay
[4] = Inhibition of P-gp (unknown origin) expressed in human LCC6MDR cells assessed as reversal of paclitaxel resistance after 5 days by MTS/PMS assay
[5] = Inhibition of MRP1 (unknown origin) expressed in human 2008/MRP1 cells assessed as reversal of mitoxantrone resistance after 5 days by MTS/PMS assay
[6] = Inhibition of P-gp (unknown origin) expressed in human LCC6MDR cells assessed as reversal of mitoxantrone resistance after 5 days by MTS/PMS assay
[7] = Inhibition of BCRP (unknown origin) expressed in human HEK293/R2 cells assessed as reversal of mitoxantrone resistance after 5 days by MTS/PMS assay

Structure (SMILES)	pEC50 [1]	other results
COC(=O)c1cccc(COc2c(-c3ccc(OCCCCc4cn(CCOCCO)nn4)cc3)oc3ccccc3c2=O)c1	8.00	pEC50 [2]: < 6.00; pEC50 [3]: 7.57; pEC50 [4]: 6.22
C#CCCCCOc1ccc(/C=C/C(=O)c2cc(C)ccc2O)cc1	< 6.00	
C#CCCCOc1ccc(-c2cc(=O)c3ccc(F)cc3o2)cc1	6.49	
[N-]=[N+]=NCCOCCOCCOc1ccc2c(=O)cc(-c3ccccc3)oc2c1	6.75	
[N-]=[N+]=NCCOCCOCCOc1ccc(-c2cc(=O)c3ccccc3o2)cc1	6.44	
C#CCCCCOc1ccc(/C=C/C(=O)c2ccc(F)cc2O)cc1	< 6.00	
COC(=O)c1cccc(COc2c(-c3ccc(OCCOCCOCCN=[N+]=[N-])cc3)oc3ccccc3c2=O)c1		pEC50 [2]: < 6.00; pEC50 [3]: 7.77; pEC50 [4]: 6.53
COC(=O)c1cccc(COc2c(-c3ccc(OCCOCCOCCn4cc(CCCCOc5ccc(C=O)cc5)nn4)cc3)oc3ccccc3c2=O)c1	7.72	pEC50 [2]: 6.06; pEC50 [3]: 7.42; pEC50 [4]: < 6.00
C#CCN(CC#C)CC#C	< 6.00	
C#CCCCCOc1ccc(-c2cc(=O)c3cc(F)ccc3o2)cc1	6.62	
COC(=O)c1cccc(COc2c(-c3ccc(OCCOCCn4cc(CNc5ccccc5)nn4)cc3)oc3ccccc3c2=O)c1	7.59	pEC50 [2]: < 6.00; pEC50 [3]: 7.36; pEC50 [4]: < 6.00
C#CCCCOc1ccc(-c2cc(=O)c3cc(C)ccc3o2)cc1	< 6.00	
COC(=O)c1cccc(COc2c(-c3ccc(OCCOCCN=[N+]=[N-])cc3)oc3ccccc3c2=O)c1		pEC50 [2]: < 6.00; pEC50 [3]: 7.30; pEC50 [4]: < 6.00
[N-]=[N+]=NCCOCCOc1ccc(-c2cc(=O)c3cc(F)ccc3o2)cc1	6.08	
COC(=O)c1cccc(COc2c(-c3ccc(OCCOCCn4cc(CCN5C(=O)c6ccccc6C5=O)nn4)cc3)oc3ccccc3c2=O)c1	7.34	pEC50 [2]: < 6.00; pEC50 [3]: 7.01; pEC50 [4]: < 6.00
COC(=O)c1cccc(COc2c(-c3ccc(OCCOCCOCCn4cc(CCN5C(=O)c6ccccc6C5=O)nn4)cc3)oc3ccccc3c2=O)c1	6.80	pEC50 [2]: < 6.00; pEC50 [4]: < 6.00
C#CCCCOc1ccc(-c2cc(=O)c3cc(F)ccc3o2)cc1	6.38	
C#CCCCCOc1ccc(/C=C/C(=O)c2ccc(C)cc2O)cc1	< 6.00	
Cc1ccc2oc(-c3ccc(OCCOCCOCCN=[N+]=[N-])cc3)cc(=O)c2c1	6.12	
COC(=O)c1cccc(COc2c(-c3ccc(OCCOCCn4cc(-c5cccc(-c6cn(CCOCCOc7ccc(-c8oc9ccccc9c(=O)c8OCc8cccc(C(=O)OC)c8)cc7)nn6)c5)nn4)cc3)oc3ccccc3c2=O)c1	8.60	
[N-]=[N+]=NCCOCCOc1ccc(-c2cc(=O)c3ccccc3o2)cc1	6.44	
C#CCCCCOc1ccc(/C=C/C(=O)c2cc(CC)ccc2O)cc1	< 6.00	
[N-]=[N+]=NCCOCCO	< 6.00	
COc1cccc(COc2c(-c3ccc(OCCOCCN=[N+]=[N-])cc3)oc3ccccc3c2=O)c1	7.12	
[N-]=[N+]=NCCOCCOc1ccc2c(=O)cc(-c3ccccc3)oc2c1	6.65	

Further lines, with some results ahead:

pEC50 [1]	Structure (SMILES)	other results
< 6.00	C#CCCCCOc1ccc(/C=C/C(=O)c2ccccc2O)cc1	
< 6.00	C#CCCCOc1ccc(-c2cc(=O)c3ccccc3o2)cc1	
7.49	COC(=O)c1cccc(COc2c(-c3ccc(OCCOCCn4cc(CN(Cc5ccccc5)Cc5ccccc5)nn4)cc3)oc3ccccc3c2=O)c1	pEC50 [2]: < 6.00; pEC50 [3]: 7.52; pEC50 [4]: < 6.00
< 6.00	C#CCCCOc1ccc2c(=O)cc(-c3ccccc3)oc2c1	
6.77	[N-]=[N+]=NCCOCCOc1cccc(-c2oc3ccccc3c(=O)c2OCc2ccccc2)c1	
7.28	[N-]=[N+]=NCCOCCOCCOc1ccc(-c2oc3ccccc3c(=O)c2OCc2ccccc2)cc1	
8.15	COC(=O)c1cccc(COc2c(-c3ccc(OCCCCc4cn(Cc5ccccc5)nn4)cc3)oc3ccccc3c2=O)c1	pEC50 [2]: < 6.00; pEC50 [5]: 6.05; pEC50 [3]: 8.22; pEC50 [6]: 6.17; pEC50 [4]: 6.17; pEC50 [7]: 7.89
8.85	COC(=O)c1cccc(COc2c(-c3ccc(OCCOCCOCCn4cc(CN(CCO)Cc5ccccc5)nn4)cc3)oc3ccccc3c2=O)c1	pEC50 [2]: < 6.00; pEC50 [5]: 6.23; pEC50 [3]: 8.80; pEC50 [6]: 6.09; pEC50 [4]: 6.51; pEC50 [7]: 6.78
< 6.00	C#CCN(C)Cc1ccccc1 [N-benzyl-N-methylprop-2-yn-1-amine]	
< 6.00	C#CCN(CCOc1ccc2c(=O)cc(-c3ccccc3)oc2c1)Cc1ccccc1	
< 6.00	O=c1cc(-c2ccccc2)oc2cc(OCCNCc3ccccc3)ccc12	
7.36	C#CCCCCOc1ccc(-c2oc3ccccc3c(=O)c2OCc2cccc(C(=O)OC)c2)cc1	pEC50 [2]: < 6.00; pEC50 [3]: 7.47; pEC50 [4]: 6.09
< 6.00	C#CCNc1ccccc1	
6.70	C#CCCCOc1ccc(-c2cc(=O)c3c(OCc4ccccc4)cc(OCOC)cc3o2)cc1	
< 6.00	C#CCCCOc1ccc(-c2nc3ccccc3c(=O)[nH]2)cc1	
< 6.00	C#CCCCCOc1ccc(C=O)cc1	
< 6.00	C#CCOCCOc1ccc2c(=O)cc(-c3ccccc3)oc2c1	
< 6.00	C#CCCN1C(=O)c2ccccc2C1=O	
6.58	C#CCCCCOc1ccc(-c2oc3ccccc3c(=O)c2OCc2cccc(OC)c2)cc1	
6.67	[N-]=[N+]=NCCOc1ccc2c(=O)cc(-c3ccccc3)oc2c1	
< 6.00	C#CCN(Cc1ccccc1)Cc1ccccc1	
7.82	COC(=O)c1cccc(COc2c(-c3ccc(OCCOCCn4cc(CN(C)Cc5ccccc5)nn4)cc3)oc3ccccc3c2=O)c1	pEC50 [2]: < 6.00; pEC50 [5]: 6.17; pEC50 [3]: 8.46; pEC50 [6]: 6.19; pEC50 [4]: < 6.00; pEC50 [7]: 7.77
< 6.00	C#CCCCCOc1ccc2c(=O)cc(-c3ccccc3)oc2c1	
7.80	COC(=O)c1cccc(COc2c(-c3ccc(OCCOCCOCCn4cc(CN(C)Cc5ccccc5)nn4)cc3)oc3ccccc3c2=O)c1	pEC50 [2]: < 6.00; pEC50 [3]: 7.55; pEC50 [4]: 6.08
7.35	[N-]=[N+]=NCCOCCOc1ccc(-c2oc3ccccc3c(=O)c2OCc2ccccc2)cc1	
